From patent US20040162221A1, “Pyrazole derivatives and herbicides containing the same” (IDEMITSU KOSAN CO., LTD., priority 1998, published 2004)

Tests used:
Settings in all cases: post-emergence spray at 3-4 leaf stage, 80 g/ha, 30th day after treatment, greenhouse
corn = test: Upland post-emergence treatment test, phytotoxicity to corn; format: in vivo
Excerpt: (§1) 97 Parts by weight of talc (trade name: Zeaklite, supplied by Zeaklite Industry) as a carrier, 1.5 parts by weight of alkylarylsulfonic acid salt (trade name: Neoplex, supplied by Kao-Atlas K.K.) as a surfactant and 1.5 parts by weight of a nonionic and anionic surfactant (trade names Sorpol 800A, supplied by Toho Chemical Co., Ltd.) were uniformly pulverized and mixed to prepare a carrier for a wettable powder.
(§2) 90 Parts by weight of the above carrier for a wettable powder and 10 parts by weight of one of the compounds of the present invention were uniformly pulverized and mixed to obtain herbicides. Further, in Comparative Herbicide Examples, comparative herbicides were also prepared from the following compounds (A) and (B) in the same manner.
(§3) Herbicidal efficacy and phytotoxicity to crops were determined on the basis of the ratio of remaining plant weight to plant weight in non-treated plot=(remaining plant weight in treated plot/plant weight in non-treated-plot)×100. The ratings were applied to the following biological tests.
(§4) Seeds of weeds velvetleaf, redroot pigweed, common ragweed, green foxtail and large crabgrass and seeds of corn were sown in 1/5,000-are Wagner pots filled with upland soil, and covered with upland soil. The seeds were grown in a greenhouse, and at the stage of 3˜4 leaves of these plants, a predetermined amount of the herbicide prepared in the above (1) was suspended in water, and the suspension was uniformly sprayed onto leaf and stalk portions at a rate of 2,000 liters/hectare. Then, the plants were grown in the greenhouse, and on the 30th day after the treatment, the herbicide was evaluated for herbicidal efficacy and phytotoxicity to the corn on the basis of the ratings shown in (2).

common ragweed = test: Upland post-emergence treatment test, common ragweed; format: in vivo, common ragweed (Ambrosia artemisilfolia)
Excerpt: as §1, §2, §3, §4

velvetleaf = test: Upland post-emergence treatment test, velvetleaf; format: in vivo, velvetleaf (Abutilon theophrasti)
Excerpt: as §1, §2, §3, §4

large crabgrass = test: Upland post-emergence treatment test, large crabgrass; format: in vivo
Excerpt: as §1, §2, §3, §4

green foxtail = test: Upland post-emergence treatment test, green foxtail; format: in vivo, green foxtail (Setaria viridis)
Excerpt: as §1, §2, §3, §4

redroot pigweed = test: Upland post-emergence treatment test, redroot pigweed; format: in vivo, redroot pigweed (Amaranthus retroflexus)
Excerpt: as §1, §2, §3, §4
Also: ranges in brackets are in %.

Compound	Phytotoxicity Corn (corn)	Herbicidal Efficacy DD = Common ragweed (common ragweed)	Herbicidal Efficacy AA = Velvetleaf (velvetleaf)	Herbicidal Efficacy FF = Large crabgrass (large crabgrass)	Herbicidal Efficacy EE = Green foxtail (green foxtail)	Herbicidal Efficacy CC = Redroot Pigweed (redroot pigweed)
Cc1c(C(=O)c2cnn(C)c2OS(=O)(=O)C(C)C)ccc2c1C(C)(C)CS2(=O)=O [Compound 5]	− (100)	5 (0)	5 (0)	5 (0)	5 (0)	5 (0)
Cc1c(C(=O)c2cnn(C)c2OS(=O)(=O)C2CC2)ccc2c1C(C)(C)CS2(=O)=O [Compound 6]	− (100)	5 (0)	5 (0)	5 (0)	5 (0)	5 (0)
CCCCS(=O)(=O)Oc1c(C(=O)c2ccc3c(c2C)C(C)(C)CS3(=O)=O)cnn1C [Compound 7]	− (100)	5 (0)	5 (0)	5 (0)	5 (0)	5 (0)
Cc1c(C(=O)c2cnn(C)c2OS(=O)(=O)CC(C)C)ccc2c1C(C)(C)CS2(=O)=O [Compound 8]	− (100)	5 (0)	5 (0)	5 (0)	5 (0)	5 (0)
CCCCCCCCS(=O)(=O)Oc1c(C(=O)c2ccc3c(c2C)C(C)(C)CS3(=O)=O)cnn1C [Compound 12]	− (100)	5 (0)	5 (0)	5 (0)	5 (0)	5 (0)
Cc1c(C(=O)c2cnn(C)c2OS(=O)(=O)CCl)ccc2c1C(C)(C)CS2(=O)=O [Compound 13]	− (100)	5 (0)	5 (0)	5 (0)	5 (0)	5 (0)
Cc1c(C(=O)c2cnn(C)c2OS(=O)(=O)CCCCl)ccc2c1C(C)(C)CS2(=O)=O [Compound 14]	− (100)	5 (0)	5 (0)	5 (0)	5 (0)	5 (0)
Cc1c(C(=O)c2cnn(C)c2OS(=O)(=O)c2ccccc2)ccc2c1C(C)(C)CS2(=O)=O [Compound 15]	− (100)	5 (0)	5 (0)	5 (0)	5 (0)	5 (0)
CCc1ccc(S(=O)(=O)Oc2c(C(=O)c3ccc4c(c3C)C(C)(C)CS4(=O)=O)cnn2C)cc1 [Compound 19]	− (100)	5 (0)	5 (0)	5 (0)	5 (0)	5 (0)
Cc1c(C(=O)c2cnn(C)c2OS(=O)(=O)c2ccc(Cl)cc2)ccc2c1C(C)(C)CS2(=O)=O [Compound 21]	− (100)	5 (0)	5 (0)	5 (0)	5 (0)	5 (0)
Cc1c(C(=O)c2cnn(C)c2OS(=O)(=O)c2ccc(Cl)cc2Cl)ccc2c1C(C)(C)CS2(=O)=O [Compound 24]	− (100)	5 (0)	5 (0)	5 (0)	5 (0)	5 (0)
COc1ccc(S(=O)(=O)Oc2c(C(=O)c3ccc4c(c3C)C(C)(C)CS4(=O)=O)cnn2C)cc1 [Compound 25]	− (100)	5 (0)	5 (0)	5 (0)	5 (0)	5 (0)
Cc1c(C(=O)c2cnn(C)c2OS(=O)(=O)c2ccc([N+](=O)[O-])cc2)ccc2c1C(C)(C)CS2(=O)=O [Compound 26]	− (100)	5 (0)	5 (0)	5 (0)	5 (0)	5 (0)
Cc1cc(C)c(S(=O)(=O)Oc2c(C(=O)c3ccc4c(c3C)C(C)(C)CS4(=O)=O)cnn2C)c(C)c1 [Compound 27]	− (100)	5 (0)	5 (0)	5 (0)	5 (0)	5 (0)
CCC(=O)Oc1c(C(=O)c2ccc3c(c2C)C(C)(C)CS3(=O)=O)cnn1C [Compound 29]	− (100)	5 (0)	5 (0)	5 (0)	5 (0)	5 (0)
Cc1ccc(C(=O)Oc2c(C(=O)c3ccc4c(c3C)C(C)(C)CS4(=O)=O)cnn2C)cc1 [Compound 42]	− (100)	5 (0)	5 (0)	5 (0)	5 (0)	5 (0)
CC(C)N.Cc1c(C(=O)c2cnn(C)c2O)ccc2c1C(C)(C)CS2(=O)=O [Compound 51]	− (100)	5 (0)	5 (0)	5 (0)	5 (0)	5 (0)
